From patent publication US11851391B2, “Antifungal compounds and methods of forming the same” (University of Kentucky Research Foundation, priority 2018, dated 2023)
Entries after “also recorded” stand apart in the source; their conditions may differ.

Experiment: Solubility of the compounds
Assay type: physicochemical

Row | SMILES | solubility (in words)
1 | O=[N+]([O-])c1ccccc1N/N=C/c1ccc(-c2cccc(/C=N/Nc3ccccc3[N+](=O)[O-])c2)cc1 [Compound 8a] | limited solubility; also recorded: insoluble
2 | O=[N+]([O-])c1ccccc1N/N=C/c1ccc(-c2ccc(/C=N/Nc3ccccc3[N+](=O)[O-])cc2)cc1 [Compound 8b] | limited solubility; also recorded: insoluble
3 | COc1ccccc1N/N=C/c1ccc(-c2cccc(/C=N/Nc3ccccc3OC)c2)cc1 [Compound 9a] | limited solubility; also recorded: insoluble
4 | COc1ccccc1N/N=C/c1ccc(-c2ccc(/C=N/Nc3ccccc3OC)cc2)cc1 [Compound 9b] | limited solubility; also recorded: insoluble
5 | COc1cccc(N/N=C/c2ccc(-c3cccc(/C=N/Nc4cccc(OC)c4)c3)cc2)c1 [Compound 11a] | limited solubility; also recorded: insoluble
6 | COc1cccc(N/N=C/c2ccc(-c3ccc(/C=N/Nc4cccc(OC)c4)cc3)cc2)c1 [Compound 11b] | limited solubility; also recorded: insoluble
